The values that follow come from US20100137376A1 (priority 2007, published 2010).

For one experiment, the system named is Septoria tritici. Put plainly: Test of Preventive Effect on Wheat Leaf Blotch. The class given is in vivo. To be noted: wheat (Apogee), foliage application 500 ppm, inoculation after 3 or 4 days, 18° C. high humidity 3 days then lighting 14 to 18 days. As to the method: (§1) In the following Test Examples, foliage application was accomplished by spraying each test solution over a different plant.
(§2) The controlling effect was evaluated by visually observing the area or lesion spots on each of test plants at the time of investigation and comparing the area of lesion spots on a plant treated with the present compound with that on an untreated plant.
Each of plastic pots was filled with sandy loam and sown with wheat (cultivar: Apogee), followed by growing in a greenhouse for 10 days. Each of the present compounds 49 to 52 was formulated into a flowable formulation according to Formulation Example 6. The flowable formulation was diluted to a predetermined concentration (500 ppm) with water, and foliage application of the dilution was carried out so that the dilution could adhere sufficiently to the surfaces of leaves of the grown wheat seedling. After the application, the plant was air-dried. After 3 or 4 days, the plant was inoculated by spraying a water suspension of spores of Septoria tritici. After the inoculation, the plant was held under high humidity conditions at 18° C. for 3 days and then under lighting condition for 14 to 18 days. Then, the area of lesion spots was investigated.

A further experiment concerns Stagonospora nodorum. In words: Test of Preventive Effect on Wheat Glume Blotch. The class given is in vivo. Conditions: wheat (Shirogane), foliage application 500 ppm before inoculation, 18° C. 4 days dark high humidity then 4 days lighting. On the procedure: as §1, §2
Each of plastic pots was filled with sandy loam and sown with wheat (cultivar; Shirogane), followed by growing in a greenhouse for 10 days.
Each of the present compounds 1 and 3 to 37 was formulated into a flowable formulation according to Formulation Example 6. The flowable formulation was diluted to a predetermined concentration (500 ppm) with water, and foliage application of the dilution was carried out so that the dilution could adhere sufficiently to the surfaces of leaves of the grown wheat seedling.
The wheat which was applied by the dilution was air-dried and then inoculated by spraying a water suspension of spores of Stagonospora nodorum.
After the inoculation, the plant was held under darkness and high humidity conditions at 18° C. for 4 days and then under lighting conditions for 4 days, and then the area of lesion spots was investigated.

Consider `CC1CCCCC1NC(=O)c1cc(N)nc(F)c1` (centres unmarked) [compound 50], for which, in the experiment on Septoria tritici, the “area of lesion spots on the treated plant relative to that on an untreated plant” value was at most 30%.
For `O=C(NCC1CCCCC1)c1ccnc(F)c1` [compound 4], the “area of lesion spots on the treated plant relative to that on an untreated plant” value in the experiment with Stagonospora nodorum is at most 30%.
